These results are taken from the supplement of paper PMC4649846.

Molecules are shown by their SMILES.

Experiment [1] relates to MDA-MB-231. Kind of experiment: drug sensitivity score (DSS); higher = more sensitive; extreme values may be limits of the assay. Conditions: incubation time: 72 h. The gist of the method:
(§1)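 MDA-MB-231 cells transfected a day earlier with siRNA against BRCA1 or non-targeting control siRNA were added at 4000 cells per well to 384-well plates holding compounds at 5 concentrations. After 72 h at 37 °C and 5% CO2, viability was read by CellTiter-Blue fluorescence. IC50 and drug sensitivity score came from logistic dose–response fits in Dotmatics Studies. The score is curve area relative to the area between 10% threshold and 100% inhibition, normalised by log of top response.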

Experiment [2] concerns MDA-MB-231. Conditions: incubation time: 72 h. The method, boiled down: as §1
Setting [3] is: siRNA: siControl (non-targeting).

As to `CC(C)Cn1cnc2c(N)nc3ccccc3c21` [Imiquimod], the drug sensitivity score in the experiment on MDA-MB-231 [1] (siRNA: siBRCA1) and with MDA-MB-231 [1] (setting [3]) was 0 each time. The “IC50 of cell viability” value in the experiment with MDA-MB-231 [2] (siRNA: siBRCA1) and in the experiment with MDA-MB-231 [2] (setting [3]) was over 4.17 µM each time.

As to `O=C(Nc1ccncc1)C(=O)c1cn(Cc2ccc(Cl)cc2)c2ccccc12` [Indibulin], the results for the drug sensitivity score in the experiment on MDA-MB-231 [1] (siRNA: siBRCA1) and in the experiment on MDA-MB-231 [1] (setting [3]) were 7.58 and 7.93, respectively. The figures for the “IC50 of cell viability” value in the experiment with MDA-MB-231 [2] (siRNA: siBRCA1) and in the experiment with MDA-MB-231 [2] (setting [3]) were 0.753 µM and 0.632 µM, respectively.

With `NC(=O)c1ccc(I)c([N+](=O)[O-])c1` [Iniparib], the drug sensitivity score with MDA-MB-231 [1] (siRNA: siBRCA1) and in the experiment on MDA-MB-231 [1] (setting [3]) was 0 each time. The “IC50 of cell viability” value in the experiment on MDA-MB-231 [2] (siRNA: siBRCA1) and in the experiment on MDA-MB-231 [2] (setting [3]) was over 4.17 µM in each case.

Take `CCc1c2c(nc3ccc(OC(=O)N4CCC(N5CCCCC5)CC4)cc13)-c1cc3c(c(=O)n1C2)COC(=O)[C@]3(O)CC` [Irinotecan]: the drug sensitivity score in the experiment on MDA-MB-231 [1] (siRNA: siBRCA1) stood at 6.18; in the experiment with MDA-MB-231 [1] (setting [3]), 3.11. Moreover, the “IC50 of cell viability” value in the experiment on MDA-MB-231 [2] (siRNA: siBRCA1) was found to be 0.76 µM; with MDA-MB-231 [2] (setting [3]), 0.576 µM.

Turning to `C/C(=C\c1csc(C)n1)[C@@H]1C[C@@H]2O[C@]2(C)CCC[C@H](C)[C@H](O)[C@@H](C)C(=O)C(C)(C)[C@@H](O)CC(=O)N1` [Ixabepilone], the drug sensitivity score is 14.8 in the experiment on MDA-MB-231 [1] (siRNA: siBRCA1) and 16.2 with MDA-MB-231 [1] (setting [3]). In addition, the “IC50 of cell viability” value with MDA-MB-231 [2] (siRNA: siBRCA1) turned out to be 0.249 µM; in the experiment with MDA-MB-231 [2] (setting [3]) it was 0.251 µM.

Consider `CS(=O)(=O)CCNCc1ccc(-c2ccc3ncnc(Nc4ccc(OCc5cccc(F)c5)c(Cl)c4)c3c2)o1` [Lapatinib], for which the drug sensitivity score is 4.84 in the experiment on MDA-MB-231 [1] (siRNA: siBRCA1) and 0 with MDA-MB-231 [1] (setting [3]). The “IC50 of cell viability” value is 1.15 µM in the experiment with MDA-MB-231 [2] (siRNA: siBRCA1) and over 4.17 µM in the experiment with MDA-MB-231 [2] (setting [3]).

On to `Nc1cccc2c1CN(C1CCC(=O)NC1=O)C2=O` (stereo not drawn) [Lenalidomide], for which the drug sensitivity score in the experiment on MDA-MB-231 [1] (siRNA: siBRCA1) and in the experiment with MDA-MB-231 [1] (setting [3]) was 0 in each case. The “IC50 of cell viability” value with MDA-MB-231 [2] (siRNA: siBRCA1) and in the experiment with MDA-MB-231 [2] (setting [3]) was over 4.17 µM each time.

Turning to `C[C@]12O[C@H](C[C@]1(O)CO)n1c3ccccc3c3c4c(c5c6ccccc6n2c5c31)CNC4=O` [Lestaurtinib], the drug sensitivity score in the experiment with MDA-MB-231 [1] (siRNA: siBRCA1) amounted to 8.59; with MDA-MB-231 [1] (setting [3]), 11.3. Also, the “IC50 of cell viability” value in the experiment on MDA-MB-231 [2] (siRNA: siBRCA1) was 1.4 µM; in the experiment on MDA-MB-231 [2] (setting [3]), 0.794 µM.

Regarding `N#Cc1ccc(C(c2ccc(C#N)cc2)n2cncn2)cc1` [Letrozole], the drug sensitivity score in the experiment on MDA-MB-231 [1] (siRNA: siBRCA1) and in the experiment with MDA-MB-231 [1] (setting [3]) was 0 each time. Besides, the “IC50 of cell viability” value with MDA-MB-231 [2] (siRNA: siBRCA1) and with MDA-MB-231 [2] (setting [3]) was over 4.17 µM throughout.

As for `c1ccc([C@H]2CN3CCSC3=N2)cc1` [Levamisole], the drug sensitivity score in the experiment on MDA-MB-231 [1] (siRNA: siBRCA1) worked out at 0.142; in the experiment on MDA-MB-231 [1] (setting [3]), 0. The “IC50 of cell viability” value in the experiment on MDA-MB-231 [2] (siRNA: siBRCA1) is 3.17 µM; in the experiment with MDA-MB-231 [2] (setting [3]), over 4.17 µM.

In the case of `O=NN(CCCl)C(=O)NC1CCCCC1` [Lomustine], the drug sensitivity score in the experiment on MDA-MB-231 [1] (siRNA: siBRCA1) and with MDA-MB-231 [1] (setting [3]) was 0 in each case. Further, the “IC50 of cell viability” value in the experiment on MDA-MB-231 [2] (siRNA: siBRCA1) and with MDA-MB-231 [2] (setting [3]) was over 4.17 µM in each case.

For the compound `C=CCn1c(=O)c2cnc(Nc3ccc(N4CCN(C)CC4)cc3)nc2n1-c1cccc(C(C)(C)O)n1` [MK1775], the drug sensitivity score in the experiment on MDA-MB-231 [1] (siRNA: siBRCA1) was determined as 13.2; in the experiment with MDA-MB-231 [1] (setting [3]) it was 14.3. Besides, the “IC50 of cell viability” value with MDA-MB-231 [2] (siRNA: siBRCA1) came to 0.348 µM; in the experiment with MDA-MB-231 [2] (setting [3]), 0.23 µM.

`NC1(c2ccc(-c3nc4ccn5c(=O)[nH]nc5c4cc3-c3ccccc3)cc2)CCC1` [MK-2206]: the drug sensitivity score with MDA-MB-231 [1] (siRNA: siBRCA1) and in the experiment with MDA-MB-231 [1] (setting [3]) was 0 each time. Further, the “IC50 of cell viability” value in the experiment on MDA-MB-231 [2] (siRNA: siBRCA1) and in the experiment with MDA-MB-231 [2] (setting [3]) was over 4.17 µM each time.

As to `COc1cc(Nc2ncc3c(n2)-c2ccc(Cl)cc2C(c2c(F)cccc2OC)=NC3)ccc1C(=O)O` [MLN8237 (Alisertib)], the drug sensitivity score in the experiment with MDA-MB-231 [1] (siRNA: siBRCA1) came out at 4.61; with MDA-MB-231 [1] (setting [3]) it was 8.75. Besides, the “IC50 of cell viability” value with MDA-MB-231 [2] (siRNA: siBRCA1) was 0.917 µM; in the experiment on MDA-MB-231 [2] (setting [3]) it was 0.358 µM.

Take `Cc1ccc(NC(=O)c2ccc(CN3CCN(C)CC3)cc2)cc1Nc1nc(-c2cccnc2)cs1` [Masitinib]: the drug sensitivity score in the experiment on MDA-MB-231 [1] (siRNA: siBRCA1) was 0.717; with MDA-MB-231 [1] (setting [3]), 4.31. The “IC50 of cell viability” value was over 4.17 µM in the experiment on MDA-MB-231 [2] (siRNA: siBRCA1) and 1.41 µM with MDA-MB-231 [2] (setting [3]).

Consider `N[C@@H](Cc1ccc(N(CCCl)CCCl)cc1)C(=O)O` [Melphalan], for which the drug sensitivity score with MDA-MB-231 [1] (siRNA: siBRCA1) and in the experiment on MDA-MB-231 [1] (setting [3]) was 0 throughout. Also, the “IC50 of cell viability” value in the experiment on MDA-MB-231 [2] (siRNA: siBRCA1) and in the experiment with MDA-MB-231 [2] (setting [3]) was over 4.17 µM each time.

In the case of `S=c1[nH]cnc2nc[nH]c12` [Mercaptopurine], the drug sensitivity score is 0 in the experiment with MDA-MB-231 [1] (siRNA: siBRCA1) and 4.58 with MDA-MB-231 [1] (setting [3]). The “IC50 of cell viability” value in the experiment with MDA-MB-231 [2] (siRNA: siBRCA1) was over 4.17 µM; with MDA-MB-231 [2] (setting [3]) it was 0.991 µM.
